“And” between values parts separate entries of the source, which are not always exact repeats. Equal values may be shown once. Marks after values point to notes of the source that are not given here.
Key:
[1] = tested on: SW480 P3 (ATCC #CCL228) human colon carcinoma cells; assay: Screening assay for enhancement of transient expression (β-galactosidase gene, liposomal transfection, 6-well plates); assay type: cell-based; conditions: for G Factor (G14): Table 1, values without asterisk, days 4-14 after transfection; for X Factor / K Factor: Table 1; for X Factor: cumulative β-galactosidase vs control, first four days after transfection, compound at the mM given in the table; for K Factor: ratio of first order rate constants of change in expression, control vs compound
Description: These parameters are called the “X” factor, the “G” factor, and the “K” factor. [formula]
This factor reflects the extent to which a chemical compound added to a transfected cell enhances stabilizes transient expression for the first four days following transfection. […] For example, if expression is doubled in the presence of a compound, […]. […] X may be calculated similarly when the agent in question is a mixture of more than one chemical compound.
Cumulative protein expression, i.e., the values for “A” and “C”, is measured by summing the values measured daily in aliquots of the cultured cells.
2. G factors. G factors differ from the X factor only with respect to the time period evaluated. For calculating a G factor, the amount of protein expressed is measured from days 4-7 or days 4-14, where day 0 is the day on which the foreign DNA is added to the cells. The subscripts denote which of the two time periods provided the basis for measurement. […] As for the X factor, [formula]
3. K factor. The K factor is the ratio of the rate constants for the change in the foreign DNA expression in control transfected cells and in cells exposed to a chemical compound of the subject invention. K is determined according to the following equation: [formula]
wherein “k(DNA)” is the first order rate constant for the change in concentration of the protein expressed from the transgenic DNA, which is expressing protein as a function of time, i.e., [formula]
Values for k(DNA) are derived by using a computer program that plots the log of the foreign protein concentration against time, using the results of transgenic protein measurements that begin about 24 hours after the foreign DNA has been added to the cell. […] However, the program calculates a “best fit” line for each data set, and determines the slope of that portion of the resulting line that corresponds to the period during which protein production is changing. […] Thus, the slope is calculated during this period of decline to provide values for k(DNA) and K that can be compared for the purpose of comparing the efficacy of different chemical compounds.
SW480 P3 (ATCC #CCL228) human colon carcinoma cells (typically, 1×10^6 cells) were plated in the wells of a 6-well tissue culture plate. The number of wells plated reflected the number of days post-transfection during which the experiment would proceed. Each well contained 1 ml of complete media from a 30 ml stock solution containing: 26.4 ml RPMI tissue culture medium, 4 mM L-glutamine, 3.0 ml fetal bovine serum, and 10 μg/ml gentamicin. Cells were cultured at 37° C. in a CO2 incubator with 10% CO2 for 24 hours after being plated, during which time the cells adhered to the plates.
After the 24 hour pre-incubation step, the transfection step was carried out by removing the RPMI and adding 900 μL OPTI-MEM® (Gibco) medium containing 2 μg of VR1412 DNA (Vical, Inc., San Diego, Calif.), which expresses the bacterial β-galactosidase gene under the control of a cytomegalovirus promoter, and 8 μg of a mixture of cationic lipid (1,2-dimyristyloxyproply-3-dimethyl-hydroxyethyl ammonium bromide (e.g., “DMRIE/DOPE”) mixed in equimolar proportions with dioleoylphosphatidylethanolamine) to yield a lipid:DNA molar ratio of 0.99:1. It should be noted that typical transient transfection protocols employ 10 μg DNA per 10^6 cells, but the protocol described here uses less DNA in order to reduce toxicity to the cells. The plates were then incubated for 4 hours at 37° C.
After the 4 hour incubation step, 100 μl of heat deactivated fetal bovine serum (to stop transfection), plus 12.0 μl of 50 mg/ml gentamicin were added to each well.

[2] = pH of aqueous solutions of the compounds; assay type: physicochemical; conditions: stock solutions prepared in culture media diluted with deionized water
Method: The pH values shown in Table 1 were determined in aqueous solutions made by diluting stock solutions prepared in culture media with deionized water.

[3] = Table 1, values marked with asterisk, days 4-7 after transfection

| Compound | pH (H20) [2] | pH (H20) ([2]; listed as adrenaline) | G Factor (G14) [1] | X Factor [1] | G Factor (G7) [1, 3] | K Factor [1] | G Factor (G7) ([1]; Table 1, days 4-7 after transfection) |
| --- | --- | --- | --- | --- | --- | --- | --- |
| Nc1cccc(S(=O)(=O)O)c1 [3-AMINO BENZENE SULFONIC ACID] | 3.8 |  | 32 | −19 |  |  |  |
| Cn1cncc1C[C@H](N)C(=O)O [3-METHYL-L-HISTIDINE] | 7.39 |  | 55 | −15 |  |  |  |
| Nc1ccc(C(=O)O)cc1 [4-AMINO-BENZOIC ACID] | 7.67 |  | −12 | 52, 52 | 96 | 1, 1 |  |
| CCCCc1ccc(C(=O)O)cc1 [4-BUTYLBENZOIC ACID] | 5.94 |  |  |  |  |  |  |
| CCc1ccc(C(=O)O)cc1 [4-ETHYLBENZOIC ACID] | 6 |  |  |  |  | 1 and 2 |  |
| CCCCCCc1ccc(C(=O)O)cc1 [4-HEXYLBENZOIC ACID] | 6.13 |  |  |  |  |  |  |
| CCCCCCCCc1ccc(C(=O)O)cc1 [4-OCTYL BENZOIC ACID] | 7.45 |  | −665 | −2314 |  |  |  |
| CCCCCc1ccc(C(=O)O)cc1 [4-PENTYLBENZOIC ACID] |  |  | −88 | −96 |  |  |  |
| CNCC(O)c1ccc(O)c(O)c1 (centres unmarked) [ADRENALINE] | 10.29 | ~10 | 68 | 49 |  |  |  |
| N[C@@H](CC(=O)O)C(=O)O [ASPARTIC ACID] | 5.75 |  | −45 |  | −17 |  |  |
| O=C(O)c1ccccc1 [BENZOIC ACID] | 4.21 |  | 28 | −3.1 |  | 1 |  |
| NC(=O)NCCC[C@H](N)C(=O)O [CITRULLINE] | 7.71 |  | 46 | 39 |  | 1 |  |
| C/C1=C2/[N-][C@H]([C@H](CC(N)=O)[C@@]2(C)CCC(=O)NC[C@@H](C)OP(=O)([O-])O[C@H]2[C@@H](O)[C@@H](n3cnc4cc(C)c(C)cc43)O[C@@H]2CO)[C@]2(C)N=C(/C(C)=C3N=C(/C=C4N=C1[C@@H](CCC(N)=O)C\4(C)C)[C@@H](CCC(N)=O)[C@]\3(C)CC(N)=O)[C@@H](CCC(N)=O)[C@]2(C)CC(N)=O.[CH2-][C@H]1O[C@@H](n2cnc3c(N)ncnc32)[C@H](O)[C@@H]1O.[Co] [COENZYME B12] |  |  | 51 | −17 |  |  |  |
| N[C@@H](Cc1cc(I)c(O)c(I)c1)C(=O)O [DIIODOTYROSINE] | 7.23 |  |  | −48 |  |  | −8* |

More lines, main results first:

| pH (H20) [2] | pH (H20) ([2]; listed as adrenaline) | Compound | G Factor (G14) [1] | X Factor [1] | G Factor (G7) [1, 3] | K Factor [1] | G Factor (G7) ([1]; Table 1, days 4-7 after transfection) |
| --- | --- | --- | --- | --- | --- | --- | --- |
| 4.19 |  | NC(=O)NC(CC(=O)O)C(=O)O (racemic) [N-CARBAMYL-DL-ASPARTIC ACID] | 115 | 26 |  |  |  |
| 6.64 |  | O=S(=O)(O)CCN(CCO)CCO [BES] |  | 77 and 57 |  | 1, 1 |  |
| 8.32 |  | NCCC(=O)N[C@@H](Cc1cnc[nH]1)C(=O)O [CARNOSINE] | 35 | −8 |  |  |  |
| 7.54 |  | CN(CC(=O)O)C(=N)N [CREATINE] | 28 | 0.34 |  |  |  |
| 7.24 |  | N[C@@H](CS)C(=O)O [CYSTEINE] | −50 | −35 |  |  |  |
| 7.59 |  | CCOC(=O)c1ccc(C(C)=O)cc1 [ETHYL 4-ACETYLBENZOATE] | 42 | 49 |  | 1 |  |
| 5.98 |  | CCOC(=O)CCCC(C)=O [ETHYL 4-ACETYLBUTYRATE] | 58 | 51 |  | 1 |  |
| 6 |  | Nc1nc2ncc(CNc3ccc(C(=O)N[C@@H](CCC(=O)O)C(=O)O)cc3)nc2c(=O)[nH]1 [FOLIC ACID] | 24 | −1.4 |  |  |  |
| 4.2 |  | N[C@@H](CCC(=O)O)C(=O)O [GLUTAMIC ACID] |  |  |  | 2 |  |

Source: patent publication US20030073654A1, “Stabilized transient gene expression” (Genespan Corporation, priority 1996, published 2003)
